Tests used:
[1] = test system: conditioned avoidance response in male Wistar rats; assay: conditioned avoidance response test (inhibition of the conditioned avoidance response; anxiolytic/tranquillising activity); type: in vivo, rat (male Wistar); conditions: rat; for Activity % (inhibition of the conditioned avoidance response): D = 80 mg/kg, p.o., 45 min before test; for ED50: po, 0.75 h
Procedure: Male Wistar rats weighing 200 grammes which have been trained to jump over a barrier in an avoidance and escape cage (shuttle box) (Letica, reference LI 910 and LI 2700) within 30 seconds of their being introduced into the cage are used in this test.
The products having an anxiolytic or tranquillising activity suppress the conditioned avoidance response.
Training: day one: 11 trials at 3 minute intervals. Electric shock to the paws after 30 seconds (5 mA, 0.1 s, 10 s).
Days two and three: 2 trials per day, with the selected rats only [sum of the scores for the first day (with the exception of the first trial)>14].
Test day: groups formed by selected rats. Oral administration of the product or the vehicle 45 minutes before the start of the study.

[2] = test system: norepinephrine-induced death in rats; assay: norepinephrine antagonism test in rats (antihypertensive activity); type: in vivo, rat (male Wister); conditions: for Activity % (norepinephrine antagonistic antihypertensive activity): D = 40 mg/kg, i.p., rat, norepinephrine 1.25 mg/kg i.v. after 2 hours; for ED50: Rattus norvegicus, ip, 2 h, read-out: ED50 (norepinephrine antagonistic antihypertensive activity)
Procedure: This activity is manifested by the protection of animals before death induced by an intravenous injection of norepinephrine, which produces a hypertensive attack in rats.
Male Wister rats weighing 200 grammes are used in this test. The product to be studied is administered intraperitoneally and 1.25 mg/kg (i.v.) of norepinephrine are administered after 2 hours.
The initial administration dose in these studies is 40 mg/kg (i.p.).

[3] = test system: mice, abstinence syndrome induced by cocaine, diazepam, alcohol or nicotine; assay: light box/dark box test: inhibition of the abstinence syndrome; type: in vivo, mouse; design: Time in box, dark (D) / Latent period L-D: unit not given here
Procedure: The light box/dark box test described by B. Costall et al. (J. Phar. Pharmacol., 1988, 40: 494-500) is used. The mouse is placed in the light zone of a box divided into two compartments, one brightly illuminated, the light box, and the other with little illumination, the dark box.
1) The number of times the mouse stands up on the hind paws in each compartment during a 5 minute period is counted (see Column 1 of Table V).
2) The activity in each compartment is given by counting the number of crossings through the squares which form the divisions of each compartment (see Column 2 of Table V).
3) The time passed in the dark box during the 5 minute counting period is determined (see Column 3 of Table 5).
4) The initial latent period is determined, that is to say the time which elapses after the animal is placed in the light box, at the start of the test, before it enters the dark box (see Column 4 of Table 5).
1) Dependency on a given treatment (diazepam, cocaine, alcohol or nicotine) employing daily administration over a period of 7 or 14 days.
Diazepam: 10 mg/kg i.p. twice per day over a period of 7 days.
Cocaine: 1 mg/kg i.p. over a period of 14 days.
Alcohol: Administered at 8% weight/volume in the drinking water over a period of 14 days. Nicotine: 0.1 mg/kg i.p. twice per day over a period of 7 days.
3) Other different groups receive, in addition to diazepam, cocaine, alcohol or nicotine, a concomitant treatment with products which are the subject of the present invention and, by way of comparison, with buspirone or ipsapirone.
The product described and the doses tested were: 4,5-dichloro-2-methyl-1-{4-[4-(2-pyrimidinyl)-1-piperazinyl]-butyl}-1H-imidazole citrate.
1 μg/kg p.o. twice per day.

[4] = 24 h after stopping diazepam (alone, or with the named product; Ex. 42 at 1 μg/kg p.o. twice per day)
[5] = during long-term treatment with the agent (doses as E20)
[6] = during long-term treatment with the agent (doses as E20), 5 minute counting period
[7] = during long-term treatment with the agent (doses as E20), number of crossings
[8] = during long-term treatment: cocaine 1 mg/kg i.p. 14 days, diazepam 10 mg/kg i.p. twice per day 7 days, alcohol 8% w/v drinking water 14 days, nicotine 0.1 mg/kg i.p. twice per day 7 days
[9] = 24 h after stopping alcohol (alone, or with the named product; Ex. 42 at 1 μg/kg p.o. twice per day)
[10] = 24 h after stopping cocaine (alone, or with the named product; Ex. 42 at 1 μg/kg p.o. twice per day)
[11] = 24 h after stopping nicotine (alone, or with the named product; Ex. 42 at 1 μg/kg p.o. twice per day)

Clc1cccc(N2CCN(CCCCn3cc(Cl)cn3)CC2)c1 [Example 39]
Activity % (inhibition of the conditioned avoidance response) [1]: 100% | Activity % (norepinephrine antagonistic antihypertensive activity) [2]: 0%

Clc1cnn(CCCCN2CCN(c3ccccc3Cl)CC2)c1 [Example 37]
Activity % (inhibition of the conditioned avoidance response) [1]: 86% | ED50 [1]: 29.5 mg/kg | Activity % (norepinephrine antagonistic antihypertensive activity) [2]: 100% | ED50 [2]: 1.9 mg/kg

NC(=O)c1cnn(CCCCN2CCN(c3ncccn3)CC2)c1 [Example 5, 4-carboxamido-1-{4-[4-(2-pyrimidinyl)-1-piperazinyl]-butyl}-1H-pyrazole]
Activity % (inhibition of the conditioned avoidance response) [1]: 68% | ED50 [1]: 33.5 mg/kg | Activity % (norepinephrine antagonistic antihypertensive activity) [2]: 0%

c1ccc(-c2cn(CCCCN3CCN(c4ncccn4)CC3)cn2)cc1 [Example 15]
Activity % (inhibition of the conditioned avoidance response) [1]: 73% | ED50 [1]: 28 mg/kg | Activity % (norepinephrine antagonistic antihypertensive activity) [2]: 0%

CN1C(=O)CN=C(c2ccccc2)c2cc(Cl)ccc21 [Diazepam]
Activity within 5 min period, dark box (D) [3, 4]: 164 | Activity within 5 min period, light box (L) [3, 4]: 5 | Latent period L-D [3, 4]: 1.8 | Number of times standing erect within 5 min. period, dark box (D) [3, 4]: 146 | Number of times standing erect within 5 min. period, light box (L) [3, 4]: 5 | Time in box, dark (D) [3, 4]: 80 | Latent period L-D [3, 5]: 27 | Number of times standing erect within 5 min. period, dark box (D) [3, 5]: 25 | Time in box, dark (D) [3, 6]: 25 | Activity within 5 min period, dark box (D) [3, 7]: 24 | Activity within 5 min period, light box (L) [3, 7]: 73 | Number of times standing erect within 5 min. period, light box (L) [3, 8]: 70

Cn1ccnc1N1CCN(CCCCn2cccn2)CC1 [Example 40]
Activity % (inhibition of the conditioned avoidance response) [1]: 28% | Activity % (norepinephrine antagonistic antihypertensive activity) [2]: 0%

c1cnc(N2CCN(CCCCn3cncn3)CC2)nc1 [Example 23]
Activity % (inhibition of the conditioned avoidance response) [1]: 100% | ED50 [1]: 6.3 mg/kg | Activity % (norepinephrine antagonistic antihypertensive activity) [2]: 50%

c1cnc(N2CCN(CCCCn3cnc4ccccc43)CC2)nc1 [Example 16, 1-{4-[4-(2-pyrimidinyl)-1-piperazinyl]-butyl}-1H-benzimidazole]
Activity % (inhibition of the conditioned avoidance response) [1]: 100% | ED50 [1]: 6.1 mg/kg | Activity % (norepinephrine antagonistic antihypertensive activity) [2]: 0%

c1ccc(CC2=NCCN2)cc1 [Tolazoline, reference compound]
Activity % (norepinephrine antagonistic antihypertensive activity) [2]: 100% | ED50 [2]: 2.97 mg/kg

Clc1cccc(Cl)c1N=C1NCCN1 [Clonidine, reference compound]
Activity % (norepinephrine antagonistic antihypertensive activity) [2]: 100% | ED50 [2]: 1.58 mg/kg

O=C1CC2(CCCC2)CC(=O)N1CCCCN1CCN(c2ncccn2)CC1 [Buspirone]
Activity % (inhibition of the conditioned avoidance response) [1]: 99% | Activity within 5 min period, dark box (D) [3, 9]: 75 | Activity within 5 min period, light box (L) [3, 9]: 15 | Latent period L-D [3, 9]: 7 | Number of times standing erect within 5 min. period, dark box (D) [3, 9]: 80 | Number of times standing erect within 5 min. period, light box (L) [3, 9]: 18 | Time in box, dark (D) [3, 9]: 62 | Activity within 5 min period, dark box (D) [3, 10]: 90 | Activity within 5 min period, light box (L) [3, 10]: 18 | Latent period L-D [3, 10]: 2 | Number of times standing erect within 5 min. period, dark box (D) [3, 10]: 98 | Number of times standing erect within 5 min. period, light box (L) [3, 10]: 10 | Time in box, dark (D) [3, 10]: 70 | Activity within 5 min period, dark box (D) [3, 4]: 100 | Activity within 5 min period, light box (L) [3, 4]: 12 | Latent period L-D [3, 4]: 2 | Number of times standing erect within 5 min. period, dark box (D) [3, 4]: 88 | Number of times standing erect within 5 min. period, light box (L) [3, 4]: 9 | Time in box, dark (D) [3, 4]: 72 | Activity within 5 min period, dark box (D) [3, 11]: 85 | Activity within 5 min period, light box (L) [3, 11]: 20 | Latent period L-D [3, 11]: 8 | Number of times standing erect within 5 min. period, dark box (D) [3, 11]: 80 | Number of times standing erect within 5 min. period, light box (L) [3, 11]: 12 | Time in box, dark (D) [3, 11]: 65 | abstinence syndrome ([3]; induced by diazepam and cocaine): maintains the abstinence syndrome | abstinence syndrome ([3]; treatment with alcohol and nicotine stopped): an abstinence syndrome, i.e. anxiogenesis, no longer exists | inhibition of anxiogenic response parameters ([3]; treatment with alcohol stopped): significantly inhibits only a few anxiogenic response parameters

COc1ccc(N2CCN(CCCCn3c(C)nc(Cl)c3Cl)CC2)cc1 [Example 28]
Activity % (inhibition of the conditioned avoidance response) [1]: 75% | ED50 [1]: 37.5 mg/kg | Activity % (norepinephrine antagonistic antihypertensive activity) [2]: 100% | ED50 [2]: 14 mg/kg

c1ccc(-c2nccn2CCCCN2CCN(c3ncccn3)CC2)cc1 [Example 13]
Activity % (inhibition of the conditioned avoidance response) [1]: 70% | ED50 [1]: 17.1 mg/kg | Activity % (norepinephrine antagonistic antihypertensive activity) [2]: 0%

COC(=O)[C@H]1[C@@H](OC(=O)c2ccccc2)C[C@@H]2CC[C@H]1N2C [Cocaine]
Activity within 5 min period, dark box (D) [3, 10]: 149 | Activity within 5 min period, light box (L) [3, 10]: 10 | Latent period L-D [3, 10]: 2 | Number of times standing erect within 5 min. period, dark box (D) [3, 10]: 122 | Number of times standing erect within 5 min. period, light box (L) [3, 10]: 7 | Time in box, dark (D) [3, 10]: 83 | Latent period L-D [3, 5]: 18 | Number of times standing erect within 5 min. period, dark box (D) [3, 5]: 38 | Time in box, dark (D) [3, 6]: 30 | Activity within 5 min period, dark box (D) [3, 7]: 30 | Activity within 5 min period, light box (L) [3, 7]: 68 | Number of times standing erect within 5 min. period, light box (L) [3, 8]: 60

CCO [Alcohol]
Activity within 5 min period, dark box (D) [3, 9]: 167 | Activity within 5 min period, light box (L) [3, 9]: 6 | Latent period L-D [3, 9]: 2 | Time in box, dark (D) [3, 9]: 84 | Latent period L-D [3, 5]: 28 | Time in box, dark (D) [3, 6]: 28 | Activity within 5 min period, dark box (D) [3, 7]: 28 | Activity within 5 min period, light box (L) [3, 7]: 80 | Number of times standing erect within 5 min. period, dark box (D) ([3]; mouse, in vivo): 22 | Number of times standing erect within 5 min. period, light box (L) ([3]; mouse, in vivo): 72 | Number of times standing erect within 5 min. period, dark box (D) ([3]; mouse, in vivo, po): 147 | Number of times standing erect within 5 min. period, light box (L) ([3]; mouse, in vivo, po): 5

CN1CCC[C@H]1c1cccnc1 [Nicotine]
Activity within 5 min period, dark box (D) ([3]; mouse, in vivo): 25 | Activity within 5 min period, light box (L) ([3]; mouse, in vivo): 70 | Latent period L-D ([3]; mouse, in vivo): 26 | Number of times standing erect within 5 min. period, dark box (D) ([3]; mouse, in vivo): 23 | Number of times standing erect within 5 min. period, light box (L) ([3]; mouse, in vivo): 66 | Time in box, dark (D) ([3]; mouse, in vivo): 25 | Activity within 5 min period, dark box (D) ([3]; mouse, in vivo, po): 147 | Activity within 5 min period, light box (L) ([3]; mouse, in vivo, po): 14 | Latent period L-D ([3]; mouse, in vivo, po): 2 | Number of times standing erect within 5 min. period, dark box (D) ([3]; mouse, in vivo, po): 125 | Number of times standing erect within 5 min. period, light box (L) ([3]; mouse, in vivo, po): 10 | Time in box, dark (D) ([3]; mouse, in vivo, po): 78

O=C1c2ccccc2S(=O)(=O)N1CCCCN1CCN(c2ncccn2)CC1 [Ipsapirone]
Activity % (inhibition of the conditioned avoidance response) [1]: 98% | Activity within 5 min period, dark box (D) [3, 9]: 80 | Activity within 5 min period, light box (L) [3, 9]: 36 | Latent period L-D [3, 9]: 10 | Number of times standing erect within 5 min. period, dark box (D) [3, 9]: 75 | Number of times standing erect within 5 min. period, light box (L) [3, 9]: 21 | Time in box, dark (D) [3, 9]: 35 | Activity within 5 min period, dark box (D) [3, 10]: 85 | Activity within 5 min period, light box (L) [3, 10]: 18 | Latent period L-D [3, 10]: 8 | Number of times standing erect within 5 min. period, dark box (D) [3, 10]: 89 | Number of times standing erect within 5 min. period, light box (L) [3, 10]: 11 | Time in box, dark (D) [3, 10]: 62 | Activity within 5 min period, dark box (D) [3, 4]: 88 | Activity within 5 min period, light box (L) [3, 4]: 17 | Latent period L-D [3, 4]: 8 | Number of times standing erect within 5 min. period, dark box (D) [3, 4]: 82 | Number of times standing erect within 5 min. period, light box (L) [3, 4]: 15 | Time in box, dark (D) [3, 4]: 90 | Activity within 5 min period, dark box (D) [3, 11]: 98 | Activity within 5 min period, light box (L) [3, 11]: 18 | Latent period L-D [3, 11]: 3 | Number of times standing erect within 5 min. period, dark box (D) [3, 11]: 84 | Number of times standing erect within 5 min. period, light box (L) [3, 11]: 9 | Time in box, dark (D) [3, 11]: 70 | abstinence syndrome ([3]; induced by alcohol): inhibits the abstinence syndrome | abstinence syndrome ([3]; induced by diazepam, cocaine and nicotine): maintains the abstinence syndrome

— patent US5382586A, “Aryl (or heteroaryl)piperazinylalkylazole derivatives, their preparation and their application as medicaments” (priority 1991, dated 1995)
